Assay results from ChEMBL document CHEMBL5465560, “Selectivity Literature for EUbOPEN Chemogenomic Library” (2024).
Values belong to the molecule of their own block, whether it stands above or below them.

Key:
[1] = biological target: Adenosine receptor A1 (Homo sapiens) (UniProt P30542); experiment: Selectivity interaction (Eurofins CEREP Diversity Profile (receptors and ion channels)) EUB0000279b ADORA1; conditions: at 10 µM
[2] = biological target: Glycogen synthase kinase-3 beta (Homo sapiens, UniProt P49841); experiment: Selectivity interaction (KinomeScan (DiscoverX)) EUB0000666a GSK3B; conditions: at 10 µM
[3] = biological target: Angiopoietin-1 receptor (Homo sapiens) (UniProt Q02763); experiment: Selectivity interaction (Upstate Kinase Profiler service (Millipore)) EUB0000056c TEK; conditions: at 1 µM
Sequence of Angiopoietin-1 receptor (Homo sapiens) (Q02763 whole entry): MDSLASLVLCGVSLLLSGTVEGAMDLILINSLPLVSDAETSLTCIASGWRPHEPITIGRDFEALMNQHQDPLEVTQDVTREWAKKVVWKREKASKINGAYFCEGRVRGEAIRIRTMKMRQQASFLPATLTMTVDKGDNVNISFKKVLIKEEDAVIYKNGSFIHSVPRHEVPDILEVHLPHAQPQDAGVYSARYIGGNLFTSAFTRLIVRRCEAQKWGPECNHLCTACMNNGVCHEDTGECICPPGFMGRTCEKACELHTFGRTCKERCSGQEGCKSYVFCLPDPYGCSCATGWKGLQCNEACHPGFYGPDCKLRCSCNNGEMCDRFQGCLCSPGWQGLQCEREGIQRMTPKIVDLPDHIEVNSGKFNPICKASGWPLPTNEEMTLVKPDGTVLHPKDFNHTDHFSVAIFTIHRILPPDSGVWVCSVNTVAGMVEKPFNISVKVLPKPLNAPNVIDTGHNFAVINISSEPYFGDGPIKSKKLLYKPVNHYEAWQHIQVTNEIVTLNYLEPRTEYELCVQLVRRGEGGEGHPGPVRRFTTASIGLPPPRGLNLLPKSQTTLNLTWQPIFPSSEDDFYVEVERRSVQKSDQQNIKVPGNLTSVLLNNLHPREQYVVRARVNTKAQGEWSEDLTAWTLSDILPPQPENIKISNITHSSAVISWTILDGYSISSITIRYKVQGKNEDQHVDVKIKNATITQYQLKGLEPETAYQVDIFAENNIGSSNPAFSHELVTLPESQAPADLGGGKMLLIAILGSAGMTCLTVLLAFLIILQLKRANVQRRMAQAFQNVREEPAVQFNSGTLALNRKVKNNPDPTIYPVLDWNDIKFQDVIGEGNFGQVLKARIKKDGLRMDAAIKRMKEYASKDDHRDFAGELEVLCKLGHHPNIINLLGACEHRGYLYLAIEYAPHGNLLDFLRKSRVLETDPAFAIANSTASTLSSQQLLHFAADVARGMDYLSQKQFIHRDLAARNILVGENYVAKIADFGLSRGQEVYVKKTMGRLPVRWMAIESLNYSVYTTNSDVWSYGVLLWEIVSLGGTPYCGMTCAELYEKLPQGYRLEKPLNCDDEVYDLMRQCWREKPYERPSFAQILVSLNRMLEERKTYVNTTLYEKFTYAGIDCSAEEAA

[4] = biological target: Serine/threonine-protein kinase MARK2 (Homo sapiens) (UniProt Q7KZI7); experiment: Selectivity interaction (ActivX KiNativ screen (kinase selectivity in THP-1 cell lysates)) EUB0000639a MARK2; type: subcellular; conditions: lysate, at 0.04 µM
[5] = biological target: Protein kinase C beta type (Homo sapiens, UniProt P05771); experiment: Selectivity interaction (Kinase panel (Invitrogen)) EUB0000639a PRKCB; conditions: at 200 nM
[6] = biological target: Receptor-interacting serine/threonine-protein kinase 3 (Homo sapiens) (UniProt Q9Y572); experiment: Selectivity interaction (ActivX KiNativ screen (kinase selectivity in THP-1 cell lysates)) EUB0000639a RIPK3; type: subcellular; conditions: lysate
Sequence of Receptor-interacting serine/threonine-protein kinase 3 (Homo sapiens) (Q9Y572 whole entry, looked up): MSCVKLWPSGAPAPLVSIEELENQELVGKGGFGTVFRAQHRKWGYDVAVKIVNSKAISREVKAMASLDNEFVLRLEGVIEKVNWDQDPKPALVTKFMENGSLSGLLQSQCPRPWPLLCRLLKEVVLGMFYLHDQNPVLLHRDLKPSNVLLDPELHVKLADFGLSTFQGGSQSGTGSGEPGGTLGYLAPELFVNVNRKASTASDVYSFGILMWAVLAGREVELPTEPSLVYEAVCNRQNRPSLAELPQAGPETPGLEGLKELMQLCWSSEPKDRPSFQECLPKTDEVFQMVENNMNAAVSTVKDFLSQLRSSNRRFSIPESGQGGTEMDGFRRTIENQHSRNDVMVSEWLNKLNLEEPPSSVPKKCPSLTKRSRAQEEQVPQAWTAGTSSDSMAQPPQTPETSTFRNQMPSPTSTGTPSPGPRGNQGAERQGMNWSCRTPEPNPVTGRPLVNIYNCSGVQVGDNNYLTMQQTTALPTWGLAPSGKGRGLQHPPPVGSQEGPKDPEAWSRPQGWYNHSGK

[7] = biological target: Ephrin type-A receptor 2 (Homo sapiens) (UniProt P29317); experiment: Selectivity interaction (ProQinase) EUB0000171b EPHA2
Sequence of Ephrin type-A receptor 2 (Homo sapiens) (P29317 whole entry): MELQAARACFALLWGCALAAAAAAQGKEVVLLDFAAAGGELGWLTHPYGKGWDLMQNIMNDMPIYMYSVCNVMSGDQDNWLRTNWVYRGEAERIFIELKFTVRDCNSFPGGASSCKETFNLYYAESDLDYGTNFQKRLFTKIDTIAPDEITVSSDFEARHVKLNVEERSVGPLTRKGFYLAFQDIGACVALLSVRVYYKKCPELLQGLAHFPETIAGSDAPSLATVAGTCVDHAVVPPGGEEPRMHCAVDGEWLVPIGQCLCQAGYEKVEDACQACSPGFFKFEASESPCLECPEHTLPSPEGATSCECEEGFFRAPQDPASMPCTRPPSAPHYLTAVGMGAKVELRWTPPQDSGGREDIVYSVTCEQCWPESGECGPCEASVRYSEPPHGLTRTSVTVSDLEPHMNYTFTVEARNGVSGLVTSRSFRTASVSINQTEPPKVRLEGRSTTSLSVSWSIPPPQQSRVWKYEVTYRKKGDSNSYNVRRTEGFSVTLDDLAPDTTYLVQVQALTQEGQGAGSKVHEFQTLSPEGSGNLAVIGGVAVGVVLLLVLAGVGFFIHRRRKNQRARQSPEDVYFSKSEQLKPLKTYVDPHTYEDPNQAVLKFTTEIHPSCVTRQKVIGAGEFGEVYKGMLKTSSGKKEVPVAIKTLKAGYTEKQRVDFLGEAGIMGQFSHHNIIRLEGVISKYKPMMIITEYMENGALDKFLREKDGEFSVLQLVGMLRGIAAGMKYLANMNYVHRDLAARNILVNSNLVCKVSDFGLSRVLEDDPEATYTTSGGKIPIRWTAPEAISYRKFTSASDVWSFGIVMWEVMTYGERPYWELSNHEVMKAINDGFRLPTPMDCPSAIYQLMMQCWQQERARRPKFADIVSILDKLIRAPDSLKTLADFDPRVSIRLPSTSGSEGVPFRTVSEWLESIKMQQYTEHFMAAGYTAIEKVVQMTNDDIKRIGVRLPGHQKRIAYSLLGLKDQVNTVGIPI

[8] = biological target: Serine/threonine-protein kinase WNK1 (Homo sapiens) (UniProt Q9H4A3); experiment: Selectivity interaction (Kinase panel (DSF assay)) EUB0001559a WNK1
[9] = biological target: Glycogen synthase kinase-3 alpha (Homo sapiens, UniProt P49840); experiment: Selectivity interaction (KinomeScan (DiscoverX)) EUB0000595a GSK3A; conditions: at 10 µM
Sequence of Glycogen synthase kinase-3 alpha (P49840 2-483 limits assumed): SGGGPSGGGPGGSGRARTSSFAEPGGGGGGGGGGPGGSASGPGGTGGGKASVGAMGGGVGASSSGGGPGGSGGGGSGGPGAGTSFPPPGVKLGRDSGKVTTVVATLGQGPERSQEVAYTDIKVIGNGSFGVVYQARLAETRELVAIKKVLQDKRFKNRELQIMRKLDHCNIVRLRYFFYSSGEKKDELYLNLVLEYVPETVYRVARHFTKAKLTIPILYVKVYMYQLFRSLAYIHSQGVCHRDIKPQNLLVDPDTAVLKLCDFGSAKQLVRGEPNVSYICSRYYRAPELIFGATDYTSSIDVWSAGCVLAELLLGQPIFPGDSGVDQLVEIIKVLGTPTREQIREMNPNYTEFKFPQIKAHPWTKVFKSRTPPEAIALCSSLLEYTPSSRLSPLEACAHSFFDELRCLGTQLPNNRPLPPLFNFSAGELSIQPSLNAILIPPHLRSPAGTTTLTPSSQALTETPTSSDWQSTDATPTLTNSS

[10] = biological target: Receptor tyrosine-protein kinase erbB-3 (Homo sapiens) (UniProt P21860); experiment: Selectivity interaction (Ambit KINOMEscan and KiNATiv profiling in Jurkat cells) EUB0000090b ERBB3; type: cell-based; conditions: at 1 µM
Sequence of Receptor tyrosine-protein kinase erbB-3 (Homo sapiens) (P21860 whole entry): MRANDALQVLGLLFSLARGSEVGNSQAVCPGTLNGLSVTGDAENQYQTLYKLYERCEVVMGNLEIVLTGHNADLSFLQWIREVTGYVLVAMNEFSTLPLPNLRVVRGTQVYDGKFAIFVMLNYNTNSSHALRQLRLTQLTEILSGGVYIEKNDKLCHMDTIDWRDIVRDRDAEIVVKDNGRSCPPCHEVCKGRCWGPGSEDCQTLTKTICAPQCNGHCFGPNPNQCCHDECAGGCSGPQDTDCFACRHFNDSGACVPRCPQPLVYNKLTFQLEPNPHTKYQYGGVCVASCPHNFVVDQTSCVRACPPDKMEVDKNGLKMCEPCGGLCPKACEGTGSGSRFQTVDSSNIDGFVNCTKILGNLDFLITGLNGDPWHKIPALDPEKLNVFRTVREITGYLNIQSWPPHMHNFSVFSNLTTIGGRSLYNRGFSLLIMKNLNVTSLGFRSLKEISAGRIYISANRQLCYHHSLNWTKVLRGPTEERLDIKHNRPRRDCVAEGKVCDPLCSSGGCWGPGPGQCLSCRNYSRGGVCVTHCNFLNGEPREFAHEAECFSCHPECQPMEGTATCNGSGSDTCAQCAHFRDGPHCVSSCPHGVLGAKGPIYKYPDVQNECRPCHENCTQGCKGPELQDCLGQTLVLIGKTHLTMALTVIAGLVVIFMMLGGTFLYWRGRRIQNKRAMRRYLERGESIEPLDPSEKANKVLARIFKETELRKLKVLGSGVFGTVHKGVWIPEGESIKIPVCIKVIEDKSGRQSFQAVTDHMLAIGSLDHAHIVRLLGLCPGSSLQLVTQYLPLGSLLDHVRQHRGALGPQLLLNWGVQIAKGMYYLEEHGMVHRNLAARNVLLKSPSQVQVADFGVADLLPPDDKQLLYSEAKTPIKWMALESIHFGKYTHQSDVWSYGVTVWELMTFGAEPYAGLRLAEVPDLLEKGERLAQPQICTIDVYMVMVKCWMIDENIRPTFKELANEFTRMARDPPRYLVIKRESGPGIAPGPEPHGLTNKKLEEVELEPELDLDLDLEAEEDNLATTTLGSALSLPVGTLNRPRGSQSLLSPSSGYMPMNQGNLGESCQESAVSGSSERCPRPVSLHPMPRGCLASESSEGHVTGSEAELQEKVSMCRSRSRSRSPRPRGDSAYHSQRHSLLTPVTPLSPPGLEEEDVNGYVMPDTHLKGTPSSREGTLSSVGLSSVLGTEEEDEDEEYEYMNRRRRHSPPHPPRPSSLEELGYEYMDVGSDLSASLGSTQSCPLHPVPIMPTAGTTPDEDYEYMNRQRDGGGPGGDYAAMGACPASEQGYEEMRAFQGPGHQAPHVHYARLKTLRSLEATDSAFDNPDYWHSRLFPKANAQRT

[11] = biological target: Calcium/calmodulin-dependent protein kinase kinase 1 (Homo sapiens) (UniProt Q8N5S9); experiment: Selectivity interaction (KinomeScan (DiscoverX)) EUB0000045b CAMKK1
Sequence of Calcium/calmodulin-dependent protein kinase kinase 1 (Homo sapiens) (Q8N5S9 whole entry, looked up): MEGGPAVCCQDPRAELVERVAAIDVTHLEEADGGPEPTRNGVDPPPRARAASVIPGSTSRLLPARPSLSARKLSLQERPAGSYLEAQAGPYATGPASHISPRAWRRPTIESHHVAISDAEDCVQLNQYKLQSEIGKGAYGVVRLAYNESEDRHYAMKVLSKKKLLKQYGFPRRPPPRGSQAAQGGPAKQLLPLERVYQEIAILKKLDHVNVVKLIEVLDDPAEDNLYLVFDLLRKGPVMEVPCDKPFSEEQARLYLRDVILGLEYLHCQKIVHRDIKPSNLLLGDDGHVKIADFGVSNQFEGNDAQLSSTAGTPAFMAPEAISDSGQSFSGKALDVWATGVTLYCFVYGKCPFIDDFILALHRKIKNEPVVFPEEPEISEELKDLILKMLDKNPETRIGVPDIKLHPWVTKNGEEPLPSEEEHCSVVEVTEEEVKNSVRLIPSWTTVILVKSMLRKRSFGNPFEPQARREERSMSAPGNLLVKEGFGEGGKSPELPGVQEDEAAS

[12] = biological target: Cyclin-dependent kinase 9 (Homo sapiens, UniProt P50750); experiment: Selectivity interaction (Kinase panel (KiNativ target engagement assay in Jurkat cells)) EUB0001635a CDK9; type: cell-based; conditions: at 1 µM
[13] = biological target: T1, Cyclin-dependent kinase-like 2 (Homo sapiens) (UniProt Q92772); experiment: Selectivity interaction (KinomeScan (DiscoverX)) EUB0000229b CDKL2; conditions: at 10 µM
T1 sequence (whole entry): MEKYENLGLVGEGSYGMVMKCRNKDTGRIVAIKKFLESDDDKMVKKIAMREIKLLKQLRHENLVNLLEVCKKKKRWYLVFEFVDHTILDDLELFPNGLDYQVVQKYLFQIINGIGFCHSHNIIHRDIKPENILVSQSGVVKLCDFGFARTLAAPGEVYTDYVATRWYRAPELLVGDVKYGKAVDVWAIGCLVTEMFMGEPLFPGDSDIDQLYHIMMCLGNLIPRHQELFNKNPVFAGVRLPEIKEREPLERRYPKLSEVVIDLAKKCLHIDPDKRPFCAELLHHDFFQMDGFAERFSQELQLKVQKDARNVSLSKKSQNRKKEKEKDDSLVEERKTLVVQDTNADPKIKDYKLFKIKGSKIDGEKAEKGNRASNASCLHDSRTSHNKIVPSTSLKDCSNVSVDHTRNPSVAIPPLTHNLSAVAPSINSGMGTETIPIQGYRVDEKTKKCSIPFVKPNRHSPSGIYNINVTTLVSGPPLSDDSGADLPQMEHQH

[14] = biological target: T2, Non-receptor tyrosine-protein kinase TNK1 (Homo sapiens) (UniProt Q13470); experiment: Selectivity interaction (KinomeScan (DiscoverX)) EUB0000092b TNK1; conditions: at 10 µM
T2 sequence (whole entry): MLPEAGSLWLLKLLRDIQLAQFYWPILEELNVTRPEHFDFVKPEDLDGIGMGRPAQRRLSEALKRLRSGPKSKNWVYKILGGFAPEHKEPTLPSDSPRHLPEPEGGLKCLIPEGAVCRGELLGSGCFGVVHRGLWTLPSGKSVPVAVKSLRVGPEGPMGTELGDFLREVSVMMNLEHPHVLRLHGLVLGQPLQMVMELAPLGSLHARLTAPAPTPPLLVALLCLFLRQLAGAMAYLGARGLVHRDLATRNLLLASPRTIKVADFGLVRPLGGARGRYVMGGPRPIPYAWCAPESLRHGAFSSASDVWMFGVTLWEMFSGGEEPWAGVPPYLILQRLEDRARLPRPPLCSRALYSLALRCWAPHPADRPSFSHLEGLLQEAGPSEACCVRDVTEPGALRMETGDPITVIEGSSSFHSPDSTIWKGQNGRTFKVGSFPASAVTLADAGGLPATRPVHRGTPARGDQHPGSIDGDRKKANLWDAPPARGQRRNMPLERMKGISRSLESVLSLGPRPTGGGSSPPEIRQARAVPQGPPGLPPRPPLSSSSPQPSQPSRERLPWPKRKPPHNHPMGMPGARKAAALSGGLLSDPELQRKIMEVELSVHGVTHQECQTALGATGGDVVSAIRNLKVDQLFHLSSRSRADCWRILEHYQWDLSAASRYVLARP

[15] = biological target: Serine/threonine-protein kinase pim-2 (Homo sapiens, UniProt Q9P1W9); experiment: Selectivity interaction (KinomeScan (DiscoverX)) EUB0000092b PIM2; conditions: at 10 µM
[16] = biological target: Serine/threonine-protein kinase PAK 3 (Homo sapiens) (UniProt O75914); experiment: Selectivity interaction (KinomeScan (DiscoverX)) EUB0000092b PAK3; conditions: at 10 µM
[17] = biological target: Cyclin-dependent kinase 8 (Homo sapiens, UniProt P49336); experiment: Selectivity interaction (KinomeScan (DiscoverX)) EUB0000618a CDK8; conditions: at 10 µM

% of control [1]: 35%
SMILES: CC(=O)c1cc(-c2ccccc2OCC2CC2)c2ncccn12

SMILES: O=C(NOC[C@H](O)CO)c1ccc(F)c(F)c1Nc1ccc(I)cc1F
% of control [2]: 68%

% of inhibition [3]: -31%
SMILES: Cc1ccc(-c2ccc3c(ccc4sc5c(c43)NC[C@@H](C)NC5=O)n2)cn1

% of inhibition [4]: 8.3%
% of inhibition [5]: 6.06%
% of inhibition ([6]; at 0.01 µM): 3%
% of inhibition ([6]; at 0.04 µM): -0.8%
% of inhibition ([6]; at 0.2 µM): -4.3%
% of inhibition ([6]; at 1 µM): 8.9%
% of inhibition ([6]; at 5 µM): -8.6%
SMILES: CC[C@@H]1[C@H](F)C(=O)N[C@@H]1COc1nccc2cc(C(N)=O)c(OC)cc12 [ZIMLOVISERTIB]

% of control ([7]; at 1 µM): 92%
% of control ([7]; at 5 µM): 81%
SMILES: C=CC(=O)Nc1cccc(C(=O)Nc2ccc(Nc3cc(-c4[nH]c(SC)nc4C)ccn3)cc2)c1

dTM [8]: -0.6 K
SMILES: CN(C(=O)c1cnn2cccnc12)c1cc2c(cc1N1CCOCC1)C(=O)N(C[C@@H](F)C(C)(C)O)C2

SMILES: COCC(=O)NC/C=C/c1ccc2ncnc(Nc3ccc(Oc4ccc(C)nc4)c(C)c3)c2c1 [CP-724714]
% of control [9]: 100%

SMILES: CN(C)C/C=C/C(=O)Nc1ccc(C(=O)N2CCCC(Nc3ncc(Cl)c(-c4c[nH]c5ccccc45)n3)C2)cc1 (stereo not drawn)
% of control [10]: 98%

SMILES: C=CC(=O)Nc1cc(-n2c(=O)ccc3cnc4ccc(-c5ccc(NS(C)(=O)=O)cc5)cc4c32)ccc1C
% of control ([11]; at 1 µM): 100%
% of control ([11]; at 10 µM): 74%

SMILES: C=CC(=O)Nc1ccc(C(=O)Nc2[nH]nc3c2CN(C(=O)N[C@H](CN(C)C)c2ccccc2)C3(C)C)cc1
% of engagement [12]: -78.1%

SMILES: COc1cc(N(C)c2ccnc3ccc(C(F)(F)F)cc23)cc(OC)c1OC
% binding [13]: 90%

SMILES: CCC(=O)N1CCN(c2ccc(-n3c(=O)ccc4cnc5ccc(-c6cnc7ccccc7c6)cc5c43)cc2C(F)(F)F)CC1
% of control [14]: 6.8%
% of control [15]: 62%
% of control [16]: 100%

SMILES: O[C@H]1CC[C@H](Nc2ncc3nc(Nc4c(F)cc(F)cc4F)n([C@H]4CCOC4)c3n2)CC1
% of control [17]: 100%
